The term IC50 denotes the point on the concentration scale where inhibition reaches its midpoint.

Test [1] concerns Leukemia (AML) LEXFAM MV4-11. Description: CFA, LEXFAM MV4-11. Conditions: Cell line/CFA. The test is classed as cell-based, human. The method, then:
(§1) CFA was performed by Charles River Laboratories (Freiburg, Germany) in 96-well plate format according to a modified two-layer soft agar assay. The origin of the tumor xenografts has been described (Fiebig et al. 1989, incorporated herein by reference). The list of tumors used in this study is detailed in Table 1.

The next test deals with T1, VDAC1/HK2 complex (Homo sapiens, UniProt P52789).
T1 construct: host or cells: E. coli (HK2); sheep liver mitochondria (VDAC1)
T1 sequence (P52789 whole entry, one chain of several): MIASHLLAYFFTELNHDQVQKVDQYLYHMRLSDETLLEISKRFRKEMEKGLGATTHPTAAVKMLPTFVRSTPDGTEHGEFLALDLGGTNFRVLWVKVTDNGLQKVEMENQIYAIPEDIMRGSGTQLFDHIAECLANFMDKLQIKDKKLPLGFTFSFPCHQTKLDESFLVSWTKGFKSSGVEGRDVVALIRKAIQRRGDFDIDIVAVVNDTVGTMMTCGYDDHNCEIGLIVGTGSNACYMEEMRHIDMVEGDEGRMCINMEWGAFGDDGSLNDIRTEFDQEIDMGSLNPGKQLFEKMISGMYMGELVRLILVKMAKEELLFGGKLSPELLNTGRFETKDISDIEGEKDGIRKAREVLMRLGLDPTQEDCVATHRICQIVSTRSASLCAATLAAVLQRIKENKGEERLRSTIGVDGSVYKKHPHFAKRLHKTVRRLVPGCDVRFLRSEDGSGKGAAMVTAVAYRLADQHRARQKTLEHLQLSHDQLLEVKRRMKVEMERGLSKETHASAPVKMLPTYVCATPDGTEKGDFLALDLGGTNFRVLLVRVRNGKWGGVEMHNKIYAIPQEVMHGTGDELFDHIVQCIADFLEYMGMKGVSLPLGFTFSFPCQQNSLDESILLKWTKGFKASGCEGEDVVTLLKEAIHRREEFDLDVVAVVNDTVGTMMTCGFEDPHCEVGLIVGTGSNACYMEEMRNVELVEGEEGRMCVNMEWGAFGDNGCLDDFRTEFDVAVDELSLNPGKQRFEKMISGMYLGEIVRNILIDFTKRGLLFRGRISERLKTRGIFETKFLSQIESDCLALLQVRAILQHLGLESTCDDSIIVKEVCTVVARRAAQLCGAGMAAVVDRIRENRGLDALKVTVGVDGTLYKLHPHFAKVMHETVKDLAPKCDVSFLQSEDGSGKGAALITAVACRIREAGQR
Description: Microscale Thermophoresis (MST) dissociation of VDAC1/HK2 complex. The test is classed as binding. Conditions: cell-free MST; HK2 pre-incubated with 1.5 μM VDAC1. The method, then: A431 (human skin SCC), HT-297.T (human AK), and HaCaT transformed normal keratinocyte cell lines were from ATCC (Manassas, VA) and were maintained in DMEM supplemented with 10% FCS, 4 mM L-Gln, 1 mM sodium pyruvate, 100 U/mL penicillin, 1 μg/mL streptomycin. Human HK1 and HK2 plasmids were purchased from Addgene (Cambridge, MA) and were purified from E. Coli. VDAC1 was purified from sheep liver mitochondria as described (Arbel et al. 2012, incorporated herein by reference). Human skin tissue microarray (SK208 and SK 805) were purchased from US Biomax Inc. (Rockville, MD).
Studies were conducted on Nanotemper Monolith NT.115 (Munich, Germany). HK1 and HK2 were labeled using Monolith™ NT.115 Protein Labeling Kit BLUE-NHS. As a preliminary study to form the VDAC1-HK complexes, various concentrations of VDAC1 were added to 67 nM HK1 or 71 nM HK2. The preferred VDAC1 concentration was determined to be 1.5 μM. For dissociation studies, HKs were pre-incubated with VDAC1 for 10 minutes and various concentrations of Formula C were added for an additional 10 minutes. MST default parameters were used and analysis was with Nanotemper analysis software. […]
The activity of Formula C in a cell-free assay was evaluated using Microscale Thermophoresis (MST) analysis, which is based on altered movement of a protein in a temperature gradient when bound to other molecules. […]
Background: Microscale thermophoresis detects binding through changes in fluorescence in a small temperature gradient.

Test [2] relates to Lymphoma (Non-Hodgkin) LYXFNH HH (CTCL cell line HH). Description: CFA / 3D clonogenic assay, LYXFNH HH. The test is classed as cell-based, human. Conditions: for IC50: CTCL cell line HH. The method, then: as §1
The cell lines tested were from a large collection of patient-derived (PDX) and cell line-derived (CDX) human tumor xenografts growing subcutaneously in immunodeficient nude mice (Oncotest GmbH, a Charles River Division). The majority of the xenografts have been directly transplanted from patients and passaged in nude mice. The xenografts retain most of the characteristics of the parental patient tumors including histology and sensitivity to anti-cancer drugs, and efficacy tests in tumor-bearing nude mice largely replicate the response of the donor patient to standard anti-cancer drugs. The cell lines were from publicly available cell lines, including cell lines derived from solid tumors and hematological malignancies. In the clonogenic assay, the capacity of tumor cells for anchorage-independent growth was investigated as colony formation in soft agar in the presence and absence of test compounds. For the assay, tumor cells were harvested from in vitro culture, or tumor cell suspensions were prepared directly from human tumor xenografts growing in nude mice. The cell suspensions also contained tumor stem cells, which are believed to mediate the metastatic and infiltrative potential of a tumor. […]
Formula C was investigated for antitumor potency and tumor type selectivity ex vivo in 11 human tumor models (5 tumor cell lines, 6 xenograft-derived cell suspensions) of various histotypes. Tests were carried out using a 3D clonogenic assay in 96-well format using an image based read-out.
The clonogenic assay was carried out in a 96 well plate format using ultra low attachment plates. […] Cultures were incubated at 37° C. and 7.5% CO2 in a humidified atmosphere for 8 to 14 days and monitored closely for colony growth using an inverted microscope. […]

The next test relates to CTCL cell line Hut-78. Nature of the test: PrestoBlue cell viability, Hut-78. The test is classed as cell-based, human. Conditions: 72 hours. The method, then:
Cutaneous T-cell lymphoma (CTCL) cell lines MJ and Hut78 were purchased from ATCC (CRL-8294, and TIB-161, respectively). Cells were grown in Iscove's Modified Dulbecco's Media supplemented with 2 mM L-glutamine, 10% fetal bovine serum, 100 U/mL of penicillin and 0.1 mg/mL of streptomycin.
Cells (1-2×10^4) were seeded in 96-well plates and treated with Formula C. Cell viability was determined 72 hours later using PrestoBlue reagent according to manufacturer's instruction (Life Technologies). The percentage of viability was expressed according to the fluorescence emitted by Formula C-treated cells compared to DMSO-treated control cells. The florescence emission values at 590 nm were measured with the plate-reader Spark 10M—multimode microplate reader (TECAN).

Structures are written as SMILES. Read-outs that look alike come from different tables or passages of the source.

For the compound `CC/C=C\CC1C(=O)CCC1CC(=O)Oc1cccc2cccnc12` (stereo not drawn) [Formula C], the IC50 is 1200 nM in test [1]; 92 nM against VDAC1/HK2 complex; 1220 nM in test [2] (clonogenic assay in soft agar, read-out: relative IC50, colony formation); 1200 nM in test [2] (clonogenic assay, concentration at T/C=50%, read-out: absolute IC50, colony formation); 1060 nM with CTCL cell line Hut-78. The “test concentration from which pronounced effects were observed” value in test [2] (clonogenic assay, cell lines) is ≥ 3 µM.

The values are drawn from patent publication US12527782B2, “Use of hexokinase 2/mitochondria-detaching compounds for treating hexokinase-2 (HK2)-expressing cancers” (Vidac Pharma Ltd., priority 2016, dated 2026).
